Test results reported in ChEMBL document CHEMBL1201862, “PubChem BioAssay data set” (2004).
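Compound exposure: 48 hours, 5 concentrations, 96-well plates. GI50 = concentration required for 50% inhibition of growth.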 The source made the active and inactive calls. Rule as the data show it: active = GI50 up to about 1.1 µM and inactive = higher.

Columns and labels:
Assay in all cases: DTP human tumour cell line panel, 48 h
SK-MEL-5 = system: SK-MEL-5
SF-539 = system: SF-539
U-251 = system: U-251
SNB-75 = system: SNB-75
OVCAR-3 = system: OVCAR-3
PC-3 = system: PC-3
HOP-92 = system: HOP-92
NCI-H522 = system: NCI-H522
ACHN = system: ACHN
SW-620 = system: SW-620
786-0 = system: 786-0
NCI-H23 = system: NCI-H23
MCF7 = system: MCF7
UACC-62 = system: UACC-62
OVCAR-4 = system: OVCAR-4
NCI-H226 = system: NCI-H226
HOP-62 = system: HOP-62
NCI/ADR-RES = system: NCI/ADR-RES
COLO 205 = system: COLO 205
CCRF-CEM = system: CCRF-CEM

Row | Compound | GI50 (SK-MEL-5) | GI50 (SF-539) | GI50 (U-251) | GI50 (SNB-75) | GI50 (OVCAR-3) | GI50 (PC-3) | GI50 (HOP-92) | GI50 (NCI-H522) | GI50 (ACHN) | GI50 (SW-620) | GI50 (786-0) | GI50 (NCI-H23) | GI50 (MCF7) | GI50 (UACC-62) | GI50 (OVCAR-4) | GI50 (NCI-H226) | GI50 (HOP-62) | GI50 (NCI/ADR-RES) | GI50 (COLO 205) | GI50 (CCRF-CEM)
1 | c1ccc(/C(=N/Nc2ccccn2)c2ncccn2)cc1 | 0.745 µM (active) | 3.52 µM (inactive) | 2.07 µM (inactive) | 1.87 µM (inactive) | 0.386 µM (active) | 9.16 µM (inactive) | 2.96 µM (inactive) | < 0.0172 µM (active) | 0.112 µM (active) | 0.0982 µM (active) | 0.8 µM (active) | 1.74 µM (inactive) | 0.175 µM (active) | 2.82 µM (inactive) | 1.28 µM (inactive) | 0.201 µM (active) | 3.31 µM (inactive) | 1.43 µM (inactive) | < 0.0139 µM (active) | < 0.0183 µM (active)
2 | O=[N+]([O-])c1ccc(CSc2c3ccccc3nc3ccccc23)cc1 | 16.7 µM (inactive) | 2.47 µM (inactive) | 7.28 µM (inactive) | 19 µM (inactive) | 4.53 µM (inactive) | 7.43 µM (inactive) | 3.75 µM (inactive) | 1.9 µM (inactive) | 3.37 µM (inactive) | 2.88 µM (inactive) | 1.93 µM (inactive) | 7.05 µM (inactive) | 2.51 µM (inactive) | 14.4 µM (inactive) | 15.6 µM (inactive) | 16.7 µM (inactive) | 18.3 µM (inactive) | 18 µM (inactive) | 3.13 µM (inactive) | 2.69 µM (inactive)
3 | Nc1ccc(S(=O)(=O)Nc2cnc3c(Cl)cccc3n2)cc1 [CHLORSULFAQUINOXALINE] | 144 µM (inactive) | 126 µM (inactive) | 207 µM (inactive) | 181 µM (inactive) | 167 µM (inactive) | 86.1 µM (inactive) | 71.3 µM (inactive) | 29 µM (inactive) | 107 µM (inactive) | 26.1 µM (inactive) | 86.3 µM (inactive) | 163 µM (inactive) | 101 µM (inactive) | 36.7 µM (inactive) | 125 µM (inactive) | 163 µM (inactive) | 78.9 µM (inactive) | 47.5 µM (inactive) | 23.9 µM (inactive) | 52.6 µM (inactive)
